Reference: patent US6399583B1, “Hybrid anthracyclines from genetically engineered streptomyces galilaeus strains, process for production and uses thereof” (Galilaeus Oy, priority 1998, dated 2002)

Experiments:
[1] = system: MES-SA human uterine sarcoma cells; assay: Cytotoxicity assay, luminescence ATP detection, MES-SA; assay type: cell-based; conditions: three days incubation, ATP content, highest concentration 10^-5 M, read-out: ED50 (nM) MES-SA
Description: (§1) The cytotoxicities of the new anthracyclines were tested in vitro with two cell lines: human uterine sarcomas MES-SA (CRL-1976; American Type Culture Collection (ATCC), Rockville, Md., USA) and MES-SA/D×5 (CRL-1977; ATCC, Rockville, Md., USA). MES-SA/D×5 has been developed by growing MES-SA cells in increasing concentrations of doxorubicin (Harker and Sikic, 1985).
(§2) Monolayer cultures were grown in McCoy's 5A medium with L-glutamine (Gibco BRL) supplemented with 10% FBS (Foetal Bovine Serum, Gibco BRL). No antibiotics were added. As the resistance is stable for at least 20 passages, the MES-SA/D×5 cells were grown without anthracycline selection (Harker and Sikic, 1985). Cells were maintained at 37° C. with 5% CO2 and subcultured every 3-5 days.
(§3) The cytotoxicity tests were performed in 96-well microtiter plates (sterile white plates with clear bottom, Corning Costar Corporation, Cambridge, Mass., USA). The anthracyclines were pipetted into the plates in 10 μl of ethanol, pure ethanol was used for control plates. Daunorubicin and aclarubicin were used as positive controls. When the ethanol had evaporated, the cells were seeded into the plates in 100 μl of appropriate medium. The number of cells seeded per well was 2500 with MES-SA, 3000 with MES-SA/D×5, 3000 with LL/2, 2000 with B16-F0 and B16-F1, 2000 with KLN-205 and 8000 with MLTC-1. The ATP content of the cells was measured after incubating the cells for three days at 37° C. with 5% CO2.
(§4) The growth medium was removed by turning the plates over, and 200 μl of ATP extraction reagent, Somalyze, were added to the wells. The plates were then incubated for 30 minutes at room temperature. The ATP measurement was performed with Luminoskan luminometer (Labsystems Oy, Helsinki, Finland) at 22° C. 20 μl of ATP monitoring reagent containing luciferin and luciferase was dispensed, and an integral measurement of 10 s with 2 s lag time was performed for each well. All reagents used were supplied by Bio-Orbit Oy, Turku, Finland.
(§5) The direct luminometer output (in relative light units, RLUS) was used to calculate the cytotoxic effect. This light signal is directly proportional to the amount of […] in a wide range (determined with Bio-Orbit ATP standard, data not shown). On the other hand, the amount of ATP is directly proportional to the amount of living cells (Kangas et al., 1984). The results are expressed as percentages of the control value of untreated cells. An IC50 value (the drug concentration resulting to an ATP signal of 50% of the untreated control signal) was graphically estimated from the % of control vs. drug concentration plot.

[2] = system: MES-SA/D×5 uterine sarcoma cells (doxorubicin-resistant, MDR); assay: Cytotoxicity assay, luminescence ATP detection, MES-SA/D×5; assay type: cell-based, human; conditions: MES-SA/D×5 cells, three days incubation, ATP content; highest concentration 10^-5 M; read-out: ED50 (nM) MES-SA/D × 5
Description: as §1, §2, §3, §4, §5

[3] = system: P388 leukemia; assay: Cytotoxic activity in vivo: P388 leukemia model; parameters: species or system mice; conditions: 10^6 P388 cells i.p. day 0
From the text: P388 leukemia was maintained by serial intraperitoneal (i.p.) transplantations in DBA/2JBom female mice purchased from M & B A/S, Ry, Denmark. The animals were maintained at the facilities of Central Animal Laboratory, University of Turku. The management of the animal unit is based on and followed the guidelines: “European Convention for the protection of Vertebrate Animals used for Experimental and other Scientific Purposes, European Treaty Series No. 123 (EU No. 609/86), Official Journal of European Communities No. L 358, Strasbourg Nov. 24, 1986”, and “The Statute No. 1360/90 of the Finnish Law, Helsinki Dec. 21, 1990: Asetus kokeellisiin ja muihin tieteellisiin tarkoituksiin käytettävien selkärankaisten eläinten suojelemiseksi tehdyn eurooppalaisen yleissopimuksen voimaansaattamisesta. Suomen s{umlaut over (aa)}doskokoelma.”
The in vivo tests were started by injecting 10^6 P388 cells suspended in Dulbecco's phosphate buffered saline i.p. in mice on day 0. Groups of 3 mice were used. The drugs were administered i.p. on day 1 on the basis of individual body weight. The control group received vehicle (10% ethanol in Dulbecco's phosphate buffered saline).

[4] = system: MLTC-1 leydig cell tumor; assay: Cytotoxicity assay, ATP detection, MLTC-1; assay type: cell-based, mouse; conditions: MLTC-1 cells in vitro; read-out: ED50 MLTC-1
Description: as §3, §4, §5
(§6) H075-4a was also tested with several mouse cell lines in vitro (all were purchased from ATCC, Rockville, Md., USA): Lewis lung carcinoma (LL/2) (CRL-1642), B16-F0 melanoma (CRL-6322), B16-F1 melanoma (CRL-6323), KLN-205 lung squamous cell carcinoma (CRL-1453) and MLTC-1 leydig cell tumor (CRL-2065) using daunomycin, aclarubicin and H075-1a (MA 144U1) as references.
(§7) All cells grew as monolayers and were cultured at 37° C. with 5% CO2 according to ATCC standard instructions for each cell line: LL/2 in Dulbecco's modified Eagle's medium with 4.5 g/l glucose and 10% FCS, B16-F0 and B16-F1 in MEM (Eagle) in Earle's BSS with non-essential amino acids and 10% FCS, KLN-205 in MEM (Eagle) in Earle's BSS with non-essential amino acids and 10% FCS, MLTC-1 in RPMI 1640 with 25 mM HEPES and 10% FBS. All media were purchased from Gibco BRL, the serum was Gibco BRL Foetal Bovine Serum. […]

[5] = system: SK-N-MC; assay: Cytotoxicity assay, ATP detection, SK-N-MC; assay type: cell-based; conditions: SK-N-MC cells in vitro; read-out: ED50 SK-N-MC
[6] = system: Lewis lung carcinoma (LL/2); assay: Cytotoxicity assay, ATP detection, LL/2; assay type: cell-based, mouse; conditions: LL/2 cells in vitro; read-out: ED50 LL/2
Description: as §3, §4, §5, §6, §7

[7] = system: B16-F1 melanoma; assay: Cytotoxicity assay, ATP detection, B16-F1; assay type: cell-based, mouse; conditions: B16-F1 cells in vitro; read-out: ED50 B16-F1
Description: as §3, §4, §5, §6, §7

[8] = system: B16-F0 melanoma; assay: Cytotoxicity assay, ATP detection, B16-F0; assay type: cell-based, mouse; conditions: B16-F0 cells in vitro; read-out: ED50 B16-F0
Description: as §3, §4, §5, §6, §7

[9] = system: KLN-205 lung squamous cell carcinoma; assay: Cytotoxicity assay, ATP detection, KLN-205; assay type: cell-based, mouse; conditions: KLN-205 cells in vitro; read-out: ED50 KLN-205
Description: as §3, §4, §5, §6, §7

SMILES	EC50 [1]	EC50 [2]	also measured
CCC1(O)Cc2cc3c(c(O)c2C(OC2CC(N(C)C)C(OC4CC(O)C(OC5CC(O)C(O)C(C)O5)C(C)O4)C(C)O2)C1)C(=O)c1c(O)cccc1C3=O (stereo not drawn) [Compound H075-8a]	130 nM	> 10000 nM	
CC1OC(OC2C(O)CC(OC3CC(C)(O)C(O)c4c(O)c5c(c(O)c43)C(=O)c3c(O)cccc3C5=O)OC2C)CC(O)C1O (stereo not drawn) [Compound H075-11e]	800 nM	> 10000 nM	
CCC1(O)CC(OC2CC(N(C)C)C(OC3CC(O)C(OC4CC(O)C(O)C(C)O4)C(C)O3)C(C)O2)c2c(O)c3c(c(O)c2C1O)C(=O)c1cccc(O)c1C3=O (stereo not drawn) [Compound H075-10a]	30 nM	1300 nM	Median survival days (range) ([3]; 4 mg/kg i.p. on day 1): 15 (14-17) days; Median survival days (range) ([3]; 8 mg/kg i.p. on day 1): 14 (13-15) days; Median survival days (range) ([3]; 16 mg/kg i.p. on day 1): 14 (14-15) days
CCC1(O)CC(OC2CC(O)C(OC3CC(O)C(OC4CC(O)C(O)C(C)O4)C(C)O3)C(C)O2)c2c(cc3c(c2O)C(=O)c2c(O)cccc2C3=O)C1O (stereo not drawn) [Compound H075-2d]	> 10000 nM	> 10000 nM	
CC1OC(OC2C(C)OC(OC3CC(C)(O)C(O)c4c(O)c5c(c(O)c43)C(=O)c3c(O)cccc3C5=O)CC2N(C)C)CC(O)C1O (stereo not drawn) [Compound H075-11b]	60 nM	3500 nM	Median survival days (range) ([3]; 4 mg/kg i.p. on day 1): 13 (12-13) days; Median survival days (range) ([3]; 8 mg/kg i.p. on day 1): 14 (13-15) days; Median survival days (range) ([3]; 16 mg/kg i.p. on day 1): 16 (15-19) days
CCC1(O)CC(OC2CC(N(C)C)C(OC3CC(O)C(OC4CC(O)C(O)C(C)O4)C(C)O3)C(C)O2)c2c(cc3c(c2O)C(=O)c2c(O)cccc2C3=O)C1O (stereo not drawn) [Compound H075-2a]	3200 nM	> 10000 nM	
CC1OC(OC2C(C)OC(OC3CC(C)(O)C(O)c4cc5c(c(O)c43)C(=O)c3c(O)cccc3C5=O)CC2N(C)C)CC(O)C1O (stereo not drawn) [Compound H075-6b]	200 nM	> 10000 nM	
CC1OC(OC2CC(C)(O)C(O)c3cc4c(c(O)c32)C(=O)c2c(O)cccc2C4=O)CC(N(C)C)C1O (stereo not drawn) [Compound H075-6c]	4200 nM	> 10000 nM	
CCC1(O)CC(OC2CC(N(C)C)C(OC3CC(O)C(O)C(C)O3)C(C)O2)c2c(cc3c(c2O)C(=O)c2c(O)cccc2C3=O)C1O (stereo not drawn) [Compound H075-2b]	400 nM	> 10000 nM	
COC(=O)C1c2c(O)c3c(c(O)c2C(OC2CC(O)C(OC4CC(O)C(O)C(C)O4)C(C)O2)CC1(C)O)C(=O)c1c(O)cccc1C3=O (stereo not drawn) [Compound H075-5e]	5200 nM	> 10000 nM	
COC(=O)C1c2cc3c(c(O)c2C(OC2CC(O)C(OC4CC(O)C(OC5CC(O)C(O)C(C)O5)C(C)O4)C(C)O2)CC1(C)O)C(=O)c1c(O)cccc1C3=O (stereo not drawn) [Compound H075-3d]	> 10000 nM	> 10000 nM	
CCC1(O)CC(OC2CC(N(C)C)C(OC3CC(O)C(OC4CC(O)C(O)C(C)O4)C(C)O3)C(C)O2)c2c(cc3c(c2O)C(=O)c2c(O)cccc2C3=O)C1C(=O)OC (stereo not drawn) [Akv-Rhn-dF-dF, aklavinone-rhodosamine-2-deoxyfucose-2-deoxyfucose]	6 nM	540 nM	EC50 [4]: 600 nM; EC50 [5]: 30 nM; EC50 [6]: 38 nM; EC50 [7]: 12 nM; EC50 [8]: 14 nM; EC50 [9]: 90 nM
